Test results as given in patent publication US20250313593A1, “DIPEPTIDE DERIVATIVE COMPOSITION, PREPARATION METHOD THEREFOR, AND USE THEREOF” (BEIJING CONTINENT PHARMACEUTICALS CO., LTD, priority 2022, published 2025).
Entries after “also recorded” stand apart in the source; their conditions may differ.

How the values were obtained:
[1] = Stability of F573 solution before and after high-temperature sterilization; assay type: physicochemical; conditions: for Content / Related substances: propylene glycol/water (80%/20%), pH 4.0-5.0
Procedure: 1.2 Investigation of Stability of F573 Injection
F573 was dissolved in the solution of propylene glycol/water (80%/20%; pH was adjusted to 4.0-5.0), and the resulting mixture was sterilized at a high temperature of 120° C. for 15 min and then examined (the results are shown in Table A-2 below).

[2] = Screening injection solvents for F573 (solvent effects, dissolution behavior); assay type: physicochemical; conditions: 2 ml:30 mg F573
Description: 1.1 for the Purpose of Preparing F573 Injection, Screening Injection Solvents

[3] = system: cells; conditions: background; cited from earlier work
[4] = system: liver failure; conditions: background; CN201110025509.8 and CN201110025516.8; cited from earlier work
[5] = After sterilization at 120° C. for 15 min
[6] = after the high-temperature sterilization

Question: Which Content [1, 5] does the source give for `CC(C)[C@H](NC(=O)OCc1ccccc1)C(=O)NC(CC(=O)O)C(=O)CF` (stereo partly drawn) [F573, 3-(2-benzyloxycarbonylamino-3-methyl-butanamido)-5-fluoro-4-oxo-pentanoic acid] here?
Answer: Its Content is 8.82 mg/mL.

Question: And the Related substances [1, 5]?
Answer: Its Related substances is 47.22%.

Question: What about the Content ([1]; Before sterilization) of the same molecule?
Answer: Its Content is 16.08 mg/mL.

Question: What about the Related substances ([1]; Before sterilization) of the same molecule?
Answer: The Related substances was 1.80%.

Question: And the “Increase in the related substances” value [1, 6]?
Answer: Its value is “about 50%”.

Question: And the “Reduction in the F573 content” value [1, 6]?
Answer: Its value is “about 50%”.

Question: What about the “Stability in aqueous solution” value ([1]; aqueous solution, moist heat sterilization) of the same molecule?
Answer: Its value is “poor stability”.

Question: What about the Dissolution behavior ([2]; Ethanol/water (10%/90%)) of the same molecule?
Answer: Its Dissolution behavior is “Turbid”.

Question: What about the Dissolution behavior ([2]; Oil for injection, Vegetable oil) of the same molecule?
Answer: The Dissolution behavior was “Turbid”.

Question: What about the Dissolution behavior ([2]; Propylene glycol/water (50%/50%)) of the same molecule?
Answer: The Dissolution behavior was “Turbid”.

Question: What about the Dissolution behavior ([2]; Propylene glycol/water (80%/20%), adjusting pH to 4.0-5.0) of the same molecule?
Answer: The Dissolution behavior was “completely dissolved; also recorded: Clarified”.

Question: And the Dissolution behavior ([2]; Water for injection, adjusting pH to 2.0-2.5)?
Answer: Its Dissolution behavior is “Turbid”.

Question: What about the Dissolution behavior ([2]; Water for injection, adjusting pH to 4.0-5.0) of the same molecule?
Answer: Its Dissolution behavior is “Turbid”.

Question: And the Toxicity on cells [3]?
Answer: The Toxicity on cells was “no significant toxicity on cells”.

Question: What about the “Efficacy on liver failure” value [4] of the same molecule?
Answer: The value was “remarkable efficacy on liver failure”.
